Laboratory results as given in patent publication US10968203B2, “Pyrimidinyl-pyridyloxy-naphthyl compounds and methods of treating IRE1-related diseases and disorders” (Genentech, Inc., priority 2017, dated 2021).
pIC50: −log10 of the molar value.

Key:
cells = conditions: high levels of 4μ8C; cited from earlier work
XBP1s-luc 293 LUC = assay: cellular PD assay, XBP1s-LUC reporter (Example 903); format: cell-based; conditions: Table 1; read-out: XBP1s-luc 293 LUC (IC50)
In short: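 Cellular IRE1α pathway activity was quantified from the luciferase signal of an XBP1-Luc reporter, where the luciferase fusion is in frame and expressed only from the spliced XBP1 transcript.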

## Cc1cc(=O)oc2c(C=O)c(O)ccc12 [Example 4μ8C]
cells
  toxicity in cells: no measurable toxicity

## Cc1ccc2c(NS(=O)(=O)Cc3ccccc3)cccc2c1Oc1ncccc1-c1ccnc(N[C@H]2CC[C@H](N)CC2)n1 [Example 152, N-(5-((3-(2-(((trans)-4-Aminocyclohexyl)amino)pyrimidin-4-yl)pyridin-2-yl)oxy)-6-methylnaphthalen-1-yl)-1-phenylmethanesulfonamide]
XBP1s-luc 293 LUC
  pIC50: 6.62
